Tests used:
[1] = tested on: ragweed; experiment: Test A postemergence; format: in vivo, Ambrosia elatior; settings: for Plant response rating, Ragweed: 31 g ai/ha, 0 to 100 scale, 0 no effect, 100 complete control; for Ragweed plant response rating: 125 g ai/ha, 0 to 100 scale where 0 is no effect and 100 is complete control
Outline: (§1)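 Scoring: eye-based comparison with untreated controls, 0 for no effect through 100 for complete control, at about day 10. Treatments: directed soil spray preemergence; foliar spray postemergence on 2–10 cm plants at the one- to two-leaf stage. Medium: loam soil with sand.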

[2] = tested on: Heteranthera limosa; experiment: Test B flooded paddy test; format: in vivo; settings: Flood, 250 g ai/ha; 0 to 100 scale where 0 is no effect and 100 is complete control
Outline: (§2)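 Compound added straight to paddy water, with pots kept flooded 3 cm above soil, on plants grown to the 2-leaf stage. Visual scoring 0-100 (100 = complete control) against untreated controls after 13 to 15 greenhouse days.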

[3] = tested on: giant foxtail; experiment: Test A postemergence; format: in vivo, Setaria faberii; settings: for Plant response rating, Foxtail, Giant: 31 g ai/ha, 0 to 100 scale, 0 no effect, 100 complete control; for Foxtail, Giant plant response rating: 125 g ai/ha, 0 to 100 scale where 0 is no effect and 100 is complete control
Outline: as §1

[4] = tested on: pigweed; experiment: Test A preemergence; format: in vivo, Amaranthus retroflexus; settings: 0 to 100 scale where 0 is no effect and 100 is complete control
Outline: as §1

[5] = tested on: kochia; experiment: Test A preemergence; format: in vivo, Kochia scoparia; settings: 0 to 100 scale where 0 is no effect and 100 is complete control
Outline: as §1

[6] = tested on: blackgrass; experiment: Test A postemergence; format: in vivo, Alopecurus myosuroides; settings: for Plant response rating, Blackgrass: 31 g ai/ha, 0 to 100 scale, 0 no effect, 100 complete control; for Blackgrass plant response rating: 125 g ai/ha, 0 to 100 scale where 0 is no effect and 100 is complete control
Outline: as §1

[7] = tested on: giant foxtail; experiment: Test A preemergence; format: in vivo, Setaria faberii; settings: 0 to 100 scale where 0 is no effect and 100 is complete control
Outline: as §1

[8] = tested on: corn; experiment: Test A postemergence; format: in vivo, Zea mays; settings: for Plant response rating, Corn: 31 g ai/ha, 0 to 100 scale, 0 no effect, 100 complete control; for Corn plant response rating: 125 g ai/ha, 0 to 100 scale where 0 is no effect and 100 is complete control
Outline: as §1

[9] = tested on: ragweed; experiment: Test A preemergence; format: in vivo, Ambrosia elatior; settings: 0 to 100 scale where 0 is no effect and 100 is complete control
Outline: as §1

[10] = tested on: rice; experiment: Test B flooded paddy test; format: in vivo, Oryza sativa; settings: Flood, 250 g ai/ha; 0 to 100 scale where 0 is no effect and 100 is complete control
Outline: as §2

[11] = tested on: kochia; experiment: Test A postemergence; format: in vivo, Kochia scoparia; settings: for Plant response rating, Kochia: 31 g ai/ha, 0 to 100 scale, 0 no effect, 100 complete control; for Kochia plant response rating: 125 g ai/ha, 0 to 100 scale where 0 is no effect and 100 is complete control
Outline: as §1

[12] = tested on: pigweed; experiment: Test A postemergence; format: in vivo, Amaranthus retroflexus; settings: for Plant response rating, Pigweed: 31 g ai/ha, 0 to 100 scale, 0 no effect, 100 complete control; for Pigweed plant response rating: 125 g ai/ha, 0 to 100 scale where 0 is no effect and 100 is complete control
Outline: as §1

[13] = tested on: wheat; experiment: Test A postemergence; format: in vivo, Triticum aestivum; settings: for Plant response rating, Wheat: 31 g ai/ha, 0 to 100 scale, 0 no effect, 100 complete control; for Wheat plant response rating: 125 g ai/ha, 0 to 100 scale where 0 is no effect and 100 is complete control
Outline: as §1

[14] = tested on: galium; experiment: Test A postemergence; format: in vivo, Galium aparine; settings: for Plant response rating, Galium: 31 g ai/ha, 0 to 100 scale, 0 no effect, 100 complete control; for Galium plant response rating: 125 g ai/ha, 0 to 100 scale where 0 is no effect and 100 is complete control
Outline: as §1

[15] = tested on: sedge, umbrella; experiment: Test B flooded paddy test; format: in vivo, Cyperus difformis; settings: Flood, 250 g ai/ha; 0 to 100 scale where 0 is no effect and 100 is complete control
Outline: as §2

[16] = tested on: barnyardgrass; experiment: Test A postemergence; format: in vivo, Echinochloa crus-galli; settings: for Plant response rating, Barnyardgrass: 31 g ai/ha, 0 to 100 scale, 0 no effect, 100 complete control; for Barnyardgrass plant response rating: 125 g ai/ha, 0 to 100 scale where 0 is no effect and 100 is complete control
Outline: as §1

[17] = tested on: barnyardgrass; experiment: Test A preemergence; format: in vivo, Echinochloa crus-galli; settings: 0 to 100 scale where 0 is no effect and 100 is complete control
Outline: as §1

[18] = tested on: Italian ryegrass; experiment: Test A preemergence; format: in vivo, Lolium multiflorum; settings: 0 to 100 scale where 0 is no effect and 100 is complete control
Outline: as §1

[19] = tested on: barnyardgrass; experiment: Test B flooded paddy test; format: in vivo, Echinochloa crus-galli; settings: Flood, 250 g ai/ha; 0 to 100 scale where 0 is no effect and 100 is complete control
Outline: as §2

[20] = tested on: Italian ryegrass; experiment: Test A postemergence; format: in vivo, Lolium multiflorum; settings: for Plant response rating, Ryegrass, Italian: 31 g ai/ha, 0 to 100 scale, 0 no effect, 100 complete control; for Ryegrass, Italian plant response rating: 125 g ai/ha, 0 to 100 scale where 0 is no effect and 100 is complete control
Outline: as §1

[21] = 31 g ai/ha, visual, approximately 10 days

Row | SMILES | Plant response rating, Ragweed [1] | Ragweed plant response rating [1] | Plant response rating, Ducksalad [2] | Plant response rating, Foxtail, Giant [3] | Foxtail, Giant plant response rating [3] | Plant response rating, Pigweed [4, 21] | Plant response rating, Pigweed ([4]; 125 g ai/ha) | Plant response rating, Kochia [5, 21] | Plant response rating, Kochia ([5]; 125 g ai/ha) | Plant response rating, Blackgrass [6] | Blackgrass plant response rating [6] | Plant response rating, Foxtail, Giant [7, 21] | Plant response rating, Foxtail, Giant ([7]; 125 g ai/ha) | Plant response rating, Corn [8] | Corn plant response rating [8] | Plant response rating, Ragweed [9, 21] | Plant response rating, Ragweed ([9]; 125 g ai/ha) | Plant response rating, Rice [10] | Plant response rating, Kochia [11] | Kochia plant response rating [11] | further results
1 | CC(C)Oc1cnn(-c2c(Br)cccc2Oc2ncc(Cl)cn2)c1 [Compound 148] | 10 | 20 | 40 | 10 | 40 | 0 | 10 | 0 | 0 | 0 | 10 | 10 | 70 | 0 | 20 | 0 | 0 | 0 | 0 | 30 | Plant response rating, Pigweed [12]: 50; Pigweed plant response rating [12]: 50; Plant response rating, Wheat [13]: 0; Wheat plant response rating [13]: 0; Plant response rating, Galium [14]: 20; Galium plant response rating [14]: 60; Plant response rating, Sedge, Umbrella [15]: 30; Plant response rating, Barnyardgrass [16]: 0; Barnyardgrass plant response rating [16]: 30; Plant response rating, Barnyardgrass [17, 21]: 0; Plant response rating, Barnyardgrass ([17]; 125 g ai/ha): 50; Plant response rating, Ryegrass, Italian [18, 21]: 0; Plant response rating, Ryegrass, Italian ([18]; 125 g ai/ha): 0; Plant response rating, Barnyardgrass [19]: 0; Plant response rating, Ryegrass, Italian [20]: 0; Ryegrass, Italian plant response rating [20]: 0
2 | CC(C)Oc1cnn(-c2c(Br)cccc2Oc2ncc(F)cn2)c1 [Compound 156] | 0 | 40 | 0 | 0 | 10 | 0 | 0 | 0 | 10 | 0 | 20 | 0 | 70 | 0 | 10 | 0 | 0 | 0 | 0 | 40 | Plant response rating, Pigweed [12]: 10; Pigweed plant response rating [12]: 20; Plant response rating, Wheat [13]: 0; Wheat plant response rating [13]: 0; Plant response rating, Galium [14]: 20; Galium plant response rating [14]: 30; Plant response rating, Sedge, Umbrella [15]: 0; Plant response rating, Barnyardgrass [16]: 0; Barnyardgrass plant response rating [16]: 10; Plant response rating, Barnyardgrass [17, 21]: 0; Plant response rating, Barnyardgrass ([17]; 125 g ai/ha): 30; Plant response rating, Ryegrass, Italian [18, 21]: 0; Plant response rating, Ryegrass, Italian ([18]; 125 g ai/ha): 0; Plant response rating, Barnyardgrass [19]: 0; Plant response rating, Ryegrass, Italian [20]: 0; Ryegrass, Italian plant response rating [20]: 0
3 | CC(C)Oc1cnn(-c2c(C#N)cccc2Oc2ncc(F)cn2)c1 [Compound 158] | 60 | 80 | 50 | 20 | 70 | 50 | 70 | 50 | 70 | 50 | 60 | 60 | 90 | 0 | 30 | 40 | 80 | 40 | 60 | 80 | Plant response rating, Pigweed [12]: 40; Pigweed plant response rating [12]: 50; Plant response rating, Wheat [13]: 0; Wheat plant response rating [13]: 0; Plant response rating, Galium [14]: 60; Galium plant response rating [14]: 100; Plant response rating, Sedge, Umbrella [15]: 0; Plant response rating, Barnyardgrass [16]: 20; Barnyardgrass plant response rating [16]: 80; Plant response rating, Barnyardgrass [17, 21]: 10; Plant response rating, Barnyardgrass ([17]; 125 g ai/ha): 70; Plant response rating, Ryegrass, Italian [18, 21]: 30; Plant response rating, Ryegrass, Italian ([18]; 125 g ai/ha): 50; Plant response rating, Barnyardgrass [19]: 0; Plant response rating, Ryegrass, Italian [20]: 20; Ryegrass, Italian plant response rating [20]: 50

— patent US9695155B2, “Herbicidal substituted pyrimidinyloxy benzene compounds” (E. I. DU PONT DE NEMOURS AND COMPANY, priority 2013, dated 2017)
